In patent US6498182B2, “Compounds” (Biovitrum AB, priority 2000, dated 2002):

Molecular target: T1, Human PTP1B (Homo sapiens, UniProt P18031)
T1 construct: Human PTP1B (amino acid residues 1-298, cloned from a human placental library); made in house; host or cells: E. coli BL21(DE3)
T1 sequence (P18031 1-298): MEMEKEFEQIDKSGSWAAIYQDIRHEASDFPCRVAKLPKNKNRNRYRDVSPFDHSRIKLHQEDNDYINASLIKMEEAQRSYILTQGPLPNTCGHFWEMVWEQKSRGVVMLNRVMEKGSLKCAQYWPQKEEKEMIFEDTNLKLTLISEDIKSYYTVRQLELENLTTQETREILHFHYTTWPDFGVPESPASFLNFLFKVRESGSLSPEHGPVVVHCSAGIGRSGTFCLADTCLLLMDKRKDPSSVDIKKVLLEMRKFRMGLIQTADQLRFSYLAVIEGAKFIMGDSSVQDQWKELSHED
Test: PTP1B activity, pNPP substrate, 96-well plate
Format: biochemical
Settings: 2 mM, control wells
Description: Human PTP1B (amino acid residues 1-298, cloned from a human placental library), without the GST tag and thrombin cleavage site, was inserted into a pMB replicon and transformed into E. coli BL21(DE3), a strain containing a chromosomal copy of the gene for T7 RNA polymerase under control of a lacUV5 promoter. Expression of PTP1B was induced with isopropyl thiogalactose and cells were lysed in lysis buffer comprising 50 mM Tris-HCl pH 7.5, 10% glycerol, 1 mM EDTA, 3 mM DTT, 3 mM MgCl2, and 0.2 mg/ml lysozyme with 1 mg/ml DNAse I. The soluble protein was purified by ion exchange, hydrophobic interaction and gel exclusion chromatography for use in assays to identify PTP1B inhibitors. The plasmid pGEX2K-SHP2 which encoded the catalytic domain of human SHP-2 (residues 252-529) was used to transform E. coli cells. […]
Human PTP1B activity was measured using p-nitrophenol phosphate (pNPP) as substrate in a 96-well microtiter plate format. An assay pH of 7.2 is used for standard assays (measured extinction coefficient=9800 at pH 7.2).
Standard assays were conducted at room temperature in a total volume of 0.2 ml that contains Hepes buffer (50 mM, pH 7.2), NaCl (50 mM), EDTA (1 mM), DTT (1 mM), bovine serum albumin (1 mg/ml), pNPP (1.25 mM) and PTP1B (500 ng/ml, 13.5 nM). […] The OD^405 was subsequently measured. […]

inhibition of PTP1B-catalyzed hydrolysis of pNPP: completely
SMILES: [Na+].[Na+].[Na+].[O]=[V]([O-])([O-])[O-] [sodium orthovanadate]
